Results reported in paper PMC4042406 (British journal of haematology, 2011).
Several values for one entry are separate records, joined by “and”; a condition that tells them apart may be missing. Equal entries are not always repeated.

Key:
CDK1/cyclin B = CDK1/cyclin B (Homo sapiens, UniProt P06493); test: Invitrogen Z'-LYTE in vitro kinase activity assay; assay type: biochemical; conditions: 500 nM LCQ195, 100 μM ATP, 1% DMSO
MM.1S cells [1] = test: Immunoblotting analysis of LCQ195-treated cells; assay type: cell-based, human; conditions: 2 μM
MM.1S cells [2] = test: InnoCyte Cytochrome C release assay; assay type: cell-based, human
CDK2/cyclin A [3] = target: T1, CDK2/cyclin A (Homo sapiens, UniProt P24941); test: Millipore KinaseProfilerXL kinase activity, dose titration; assay type: biochemical; conditions: 5-log dose titration 0.001-10μM
U266 MM cell line = test: MTT colorimetric survival assay; assay type: cell-based, human; conditions: read-out: EC50 (viability), U266, 0-4 μM, 48 hrs
CDK5/p25 = CDK5/p25 (Homo sapiens, UniProt Q00535); test: Invitrogen Z'-LYTE in vitro kinase activity assay; assay type: biochemical; conditions: 500 nM LCQ195, 100 μM ATP, 1% DMSO
Sequence of CDK5/p25 (Q00535 whole entry): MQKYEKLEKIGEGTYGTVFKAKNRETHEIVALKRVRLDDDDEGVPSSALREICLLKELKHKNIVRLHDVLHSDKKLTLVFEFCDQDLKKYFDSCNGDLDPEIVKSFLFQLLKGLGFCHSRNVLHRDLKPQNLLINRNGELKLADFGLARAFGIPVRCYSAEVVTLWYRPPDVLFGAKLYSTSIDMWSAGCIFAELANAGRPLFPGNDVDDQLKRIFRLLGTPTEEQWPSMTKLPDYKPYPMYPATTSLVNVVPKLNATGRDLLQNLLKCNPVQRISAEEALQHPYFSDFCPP

XG-1 MM cell line = test: MTT colorimetric survival assay; assay type: cell-based, human; conditions: read-out: EC50 (viability), XG-1, 0-4 μM, 48 hrs
Dox40 MM cell line = test: MTT colorimetric survival assay; assay type: cell-based, human; conditions: read-out: EC50 (viability), Dox40, 0-4 μM, 48 hrs
[4] = test system: CD138+ selected primary MM cells; test: CellTiterGlo viability of purified primary tumor cells from MM patients; assay type: cell-based, human; conditions: increasing doses, 48 hrs
MM.1S cells [5] = test: Annexin V / PI flow cytometric analysis of apoptosis; assay type: cell-based, human; conditions: 2 μM, 4-48 hrs
MM.1S cells [6] = test: Flow cytometric cell cycle analysis; assay type: cell-based, human; conditions: 2 μM for up to 48 hours
MM.1S cells [7] = test: Gene expression profiling; assay type: cell-based, human; conditions: 2 μM, 2-24hrs
KMS-12-BM MM cell line = test: MTT colorimetric survival assay; assay type: cell-based, human; conditions: read-out: EC50 (viability), 0-4 μM, 48 hrs
NOP2 MM cell line = test: MTT colorimetric survival assay; assay type: cell-based, human; conditions: read-out: EC50 (viability), NOP2, 0-4 μM, 48 hrs
CDK2/cyclin A [8] = target: T1, CDK2/cyclin A; test: Invitrogen Z'-LYTE in vitro kinase activity assay; assay type: biochemical; conditions: 500 nM LCQ195, 100 μM ATP, 1% DMSO
CHEK2 (CHK2) = CHEK2 (CHK2) (Homo sapiens, UniProt O96017); test: Invitrogen Z'-LYTE in vitro kinase activity assay; assay type: biochemical; conditions: 500 nM LCQ195, 100 μM ATP, 1% DMSO
Sequence of CHEK2 (CHK2) (O96017 whole entry): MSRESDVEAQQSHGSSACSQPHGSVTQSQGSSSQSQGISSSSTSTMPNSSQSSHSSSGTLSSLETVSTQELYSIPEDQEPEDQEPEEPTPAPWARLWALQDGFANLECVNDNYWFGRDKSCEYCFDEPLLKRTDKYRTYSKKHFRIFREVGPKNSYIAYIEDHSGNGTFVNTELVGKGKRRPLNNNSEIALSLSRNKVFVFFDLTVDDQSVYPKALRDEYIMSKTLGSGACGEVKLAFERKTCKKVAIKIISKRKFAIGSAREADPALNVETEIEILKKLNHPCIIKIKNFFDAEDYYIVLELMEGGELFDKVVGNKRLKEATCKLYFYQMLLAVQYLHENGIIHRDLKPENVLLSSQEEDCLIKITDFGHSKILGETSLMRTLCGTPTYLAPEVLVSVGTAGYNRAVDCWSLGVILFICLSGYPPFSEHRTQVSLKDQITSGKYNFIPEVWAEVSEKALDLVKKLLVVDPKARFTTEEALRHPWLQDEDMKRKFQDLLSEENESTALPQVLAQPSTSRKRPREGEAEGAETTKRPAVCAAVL

MM.1S cells [9] = test: Immunoblotting, comparison of LCQ195, flavopiridol and Taxol; conditions: equipotent doses: LCQ195 1 μM, flavopiridol 50 nM; 4-24 hrs
CDK2/cyclin E = CDK2/cyclin E (Homo sapiens, UniProt P24941); test: Millipore KinaseProfilerXL kinase activity, dose titration; assay type: biochemical; conditions: 5-log dose titration 0.001-10μM
MM.1S cells [10] = test: Drug combination viability; assay type: cell-based, human; conditions: data not shown
HS-5 BMSCs = test: MTT viability of non-malignant stromal cells; assay type: cell-based, human; conditions: read-out: calculated EC50 (viability); non-malignant HS-5 BMSCs
OPM2 MM cell line = test: MTT colorimetric survival assay; assay type: cell-based, human; conditions: read-out: EC50 (viability), OPM2, 0-4 μM, 48 hrs
CLK3 = CLK3 (Homo sapiens, UniProt P49761); test: Invitrogen Z'-LYTE in vitro kinase activity assay; assay type: biochemical; conditions: 500 nM LCQ195, 100 μM ATP, 1% DMSO
Sequence of CLK3 (P49761 whole entry): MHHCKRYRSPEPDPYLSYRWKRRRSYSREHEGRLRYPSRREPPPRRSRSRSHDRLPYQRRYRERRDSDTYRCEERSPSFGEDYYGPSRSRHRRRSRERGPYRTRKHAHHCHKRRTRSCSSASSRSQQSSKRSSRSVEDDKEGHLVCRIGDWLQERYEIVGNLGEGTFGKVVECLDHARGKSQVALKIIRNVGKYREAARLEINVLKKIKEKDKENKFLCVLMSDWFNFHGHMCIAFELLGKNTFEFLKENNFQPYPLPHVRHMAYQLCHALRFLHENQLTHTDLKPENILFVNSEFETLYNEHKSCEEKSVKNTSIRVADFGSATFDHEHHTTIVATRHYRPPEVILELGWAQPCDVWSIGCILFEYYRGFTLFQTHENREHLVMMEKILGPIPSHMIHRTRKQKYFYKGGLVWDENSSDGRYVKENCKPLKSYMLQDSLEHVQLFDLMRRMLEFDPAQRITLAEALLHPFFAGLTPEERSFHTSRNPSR

[11] = test system: Bcl-2 over-expressing MM.1S; test: Survival of Bcl-2 over-expressing MM.1S vs parental cells; assay type: cell-based, human; conditions: LCQ195 treatment for 48 hrs
Delta 47 MM cell line = test: MTT colorimetric survival assay; assay type: cell-based, human; conditions: read-out: EC50 (viability), Delta 47, 0-4 μM, 48 hrs
[12] = test system: immortalized hepatocyte cell line THLE-3; test: MTT viability of immortalized hepatocytes; assay type: cell-based; conditions: read-out: calculated EC50 (viability); immortalized hepatocytes THLE-3
PBMCs = test: MTT viability of PBMCs from healthy donors; assay type: cell-based, human; conditions: LCQ195 up to 8 μM for 48 hrs
panel of MM cell lines = test: MTT colorimetric survival assay, panel of MM cell lines; assay type: cell-based, human; conditions: read-out: EC50 (viability), majority of MM cell lines, 0-4 μM, 48 hrs
S6B45 MM cell line = test: MTT colorimetric survival assay; assay type: cell-based, human; conditions: read-out: EC50 (viability), S6B45, 0-4 μM, 48 hrs
CDK5/p35 = CDK5/p35 (Homo sapiens, UniProt Q00535); test: Invitrogen Z'-LYTE in vitro kinase activity assay; assay type: biochemical; conditions: 500 nM LCQ195, 100 μM ATP, 1% DMSO
Sequence of CDK5/p35 (Q00535 whole entry): as the sequence (Q00535 whole entry) above

Sequence of CDK1/cyclin B (P06493 whole entry): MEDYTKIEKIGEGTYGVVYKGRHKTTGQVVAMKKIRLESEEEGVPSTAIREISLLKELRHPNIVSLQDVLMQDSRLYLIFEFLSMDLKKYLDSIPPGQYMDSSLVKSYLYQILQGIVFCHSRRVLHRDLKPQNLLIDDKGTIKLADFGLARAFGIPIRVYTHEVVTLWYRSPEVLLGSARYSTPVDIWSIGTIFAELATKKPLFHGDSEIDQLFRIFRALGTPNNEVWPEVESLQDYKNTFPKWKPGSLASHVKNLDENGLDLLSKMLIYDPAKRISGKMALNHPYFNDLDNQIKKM

CS(=O)(=O)N1CCC(NC(=O)c2[nH]ncc2NC(=O)c2c(Cl)cccc2Cl)CC1 [LCQ195]
inhibition of kinase activity (CDK1/cyclin B): potent inhibition | caspase 8, caspase 3 and PARP cleavage (immunoblotting) (MM.1S cells [1]; 0-24 hrs): cleavage as early as 16 hrs | caspase 9 cleavage (immunoblotting) (MM.1S cells [1]; 0-24 hrs): no cleavage of caspase 9 | Rb phosphorylation (immunoblotting) (MM.1S cells [1]; as early as 2 hours): pronounced decrease | cytochrome c release (MM.1S cells [2]; 2 μM LCQ195 for 4-24hrs): no changes | in vitro kinase activity in dose titration (CDK2/cyclin A [3]): active at sub-μM concentrations | EC50 (U266 MM cell line): < 1000 nM | inhibition of kinase activity (CDK5/p25): potent inhibition | EC50 (XG-1 MM cell line): > 4000 nM | EC50 (Dox40 MM cell line): > 4000 nM | response of purified primary tumor cells (viability) [4]: responded | apoptosis (Annexin V / PI staining) (MM.1S cells [5]): induces apoptosis | cell cycle profile (MM.1S cells [6]): increased the percentage of cells in S and G2/M phases early, followed by an increase in sub-G1 population | expression of transcription factors myc, IRF4 and XBP-1 (transcripts) (MM.1S cells [7]): suppressed | EC50 (KMS-12-BM MM cell line): < 1000 nM | EC50 (NOP2 MM cell line): > 4000 nM | inhibition of kinase activity (CDK2/cyclin A [8]): potent inhibition | inhibition of kinase activity (CHEK2 (CHK2)): partial inhibition | p107 levels (immunoblotting) (MM.1S cells [9]): decreased | in vitro kinase activity in dose titration (CDK2/cyclin E): active at sub-μM concentrations | combination with bortezomib (MM.1S cells [10]): no synergy | combination with doxorubicin (MM.1S cells [10]): no synergy | EC50 (HS-5 BMSCs): > 4000 nM | EC50 (OPM2 MM cell line): < 1000 nM | inhibition of kinase activity (CLK3): partial inhibition | effect of bcl-2 overexpression on cell survival after treatment [11]: minimal effect on cell survival | EC50 (Delta 47 MM cell line): < 1000 nM | EC50 [12]: > 4000 nM | percentage of viable PBMCs (PBMCs): ≥ 50% | EC50 (panel of MM cell lines): ~1000 nM and ≤ 1000 nM | EC50 (S6B45 MM cell line): < 1000 nM | inhibition of kinase activity (CDK5/p35): potent inhibition

CN1CC[C@H](c2c(O)cc(O)c3c(=O)cc(-c4ccccc4Cl)oc23)[C@H](O)C1 [flavopiridol, reference compound]
p107 levels (immunoblotting) (MM.1S cells [9]): stable

CC(C)C[C@H](NC(=O)[C@H](Cc1ccccc1)NC(=O)c1cnccn1)B(O)O [PS-341, reference compound]
cytochrome c release (MM.1S cells [2]; positive control, 50 nM for 12 hrs): significant release of cytochrome C
